Test system: MV-4-11 cells
Test: Gene expression microarray analysis (Affymetrix PrimeView) and GSEA
Format: cell-based, human
Set-up: RFU PODN (11730768_x_at) / Fold change /veh PODN (11730768_x_at) / RFU LINC00158 (11744669_a_at) / Fold change /veh LINC00158 (11744669_a_at) / RFU DUSP10 (11751237_a_at) / Fold change /veh DUSP10 (11751237_a_at) / RFU ID3 (11757404_x_at) / Fold change /veh ID3 (11757404_x_at) / RFU PLEKHG5 (11737974_s_at) / Fold change /veh PLEKHG5 (11737974_s_at) / RFU LRRC4B (11730491_at) / Fold change /veh LRRC4B (11730491_at) / RFU GIMAP4 (11747438_a_at) / Fold change /veh GIMAP4 (11747438_a_at) / RFU KRT8 (11758183_x_at) / Fold change /veh KRT8 (11758183_x_at) / RFU CNN1 (11734310_a_at) / Fold change /veh CNN1 (11734310_a_at) / RFU VPS37D (11726825_at) / Fold change /veh VPS37D (11726825_at) / RFU C10orf10 (11716522_x_at) / Fold change /veh C10orf10 (11716522_x_at) / RFU KIR2DL2 /// KIR2DL4 /// KIR2DL5A /// KIR2DL5B /// KIR2DS1 /// KIR2DS2 /// KIR2DS3 /// KIR2DS4 /// KIR3DL3 /// KIR3DL3 /// KIR3DS1 (11738374_at) / Fold change /veh KIR2DL2 /// KIR2DL4 /// KIR2DL5A /// KIR2DL5B /// KIR2DS1 /// KIR2DS2 /// KIR2DS3 /// KIR2DS4 /// KIR3DL3 /// KIR3DL3 /// KIR3DS1 (11738374_at) / RFU C1QL1 (11718748_at) / Fold change /veh C1QL1 (11718748_at) / RFU TMPRSS4 (11747572_a_at) / Fold change /veh TMPRSS4 (11747572_a_at) / RFU HAMP (11756126_x_at) / Fold change /veh HAMP (11756126_x_at) / RFU RNFT2 (11725882_a_at) / Fold change /veh RNFT2 (11725882_a_at) / RFU NR4A2 (11747474_a_at) / Fold change /veh NR4A2 (11747474_a_at) / RFU ABCC12 (11746883_a_at) / Fold change /veh ABCC12 (11746883_a_at) / RFU TMEM136 (11760407_x_at) / Fold change /veh TMEM136 (11760407_x_at) / RFU CLDN22 /// WWC2 (11732394_at) / Fold change /veh CLDN22 /// WWC2 (11732394_at) / RFU HLA-DPB1 (11760878_x_at) / Fold change /veh HLA-DPB1 (11760878_x_at) / RFU SPINT1 (11716480_a_at) / Fold change /veh SPINT1 (11716480_a_at) / RFU GAP43 (11754022_s_at) / Fold change /veh GAP43 (11754022_s_at) / RFU A4GNT (11735810_at) / Fold change /veh A4GNT (11735810_at) / RFU PRB3 (11715151_x_at) / Fold change /veh PRB3 (11715151_x_at) / RFU TUBB4B (11761932_at) / Fold change /veh TUBB4B (11761932_at) / RFU CAPN14 (11732068_a_at) / Fold change /veh CAPN14 (11732068_a_at) / RFU TMCC2 (11721928_a_at) / Fold change /veh TMCC2 (11721928_a_at) / RFU IRGQ (11745062_a_at) / Fold change /veh IRGQ (11745062_a_at) / RFU FAM174B (11720279_a_at) / Fold change /veh FAM174B (11720279_a_at) / RFU TMPRSS4 (11748680_a_at) / Fold change /veh TMPRSS4 (11748680_a_at) / RFU FAM212B (11763350_a_at) / Fold change /veh FAM212B (11763350_a_at) / RFU PLEKHG5 (11743358_a_at) / Fold change /veh PLEKHG5 (11743358_a_at) / RFU ZSCAN30 (11745921_a_at) / Fold change /veh ZSCAN30 (11745921_a_at) / RFU CMKLR1 (11741424_a_at) / Fold change /veh CMKLR1 (11741424_a_at) / RFU LOC101060620 /// MAPK8IP1 (11723275_at) / Fold change /veh LOC101060620 /// MAPK8IP1 (11723275_at) / RFU SPTSSB (11747773_x_at) / Fold change /veh SPTSSB (11747773_x_at) / RFU PRSS12 (11739890_at) / Fold change /veh PRSS12 (11739890_at) / RFU BIN1 (11741810_x_at) / Fold change /veh BIN1 (11741810_x_at) / RFU WNT11 (11732464_a_at) / Fold change /veh WNT11 (11732464_a_at) / RFU C10orf10 (11716521_a_at) / Fold change /veh C10orf10 (11716521_a_at) / RFU C5orf56 (11738089_at) / Fold change /veh C5orf56 (11738089_at) / RFU CYB561 (11721691_x_at) / Fold change /veh CYB561 (11721691_x_at) / RFU ANKRD19P (11752326_a_at) / Fold change /veh ANKRD19P (11752326_a_at) / RFU OR2T12 /// OR2T33 /// OR2T8 (11738714_s_at) / Fold change /veh OR2T12 /// OR2T33 /// OR2T8 (11738714_s_at) / RFU VCAN (11748164_a_at) / Fold change /veh VCAN (11748164_a_at) / RFU JSRP1 (11732532_at) / Fold change /veh JSRP1 (11732532_at) / RFU KRTAP10-11 (11738290_x_at) / Fold change /veh KRTAP10-11 (11738290_x_at) / RFU MYO3A (11730013_a_at) / Fold change /veh MYO3A (11730013_a_at) / RFU EBF3 (11725865_a_at) / Fold change /veh EBF3 (11725865_a_at) / RFU CAMK2N1 (11719241_x_at) / Fold change /veh CAMK2N1 (11719241_x_at) / RFU C5orf56 (11738088_a_at) / Fold change /veh C5orf56 (11738088_a_at) / RFU OLFML3 (11715873_a_at) / Fold change /veh OLFML3 (11715873_a_at) / RFU LOC100653217 /// NTM (11731650_a_at) / Fold change /veh LOC100653217 /// NTM (11731650_a_at) / RFU MAPK11 (11762145_a_at) / Fold change /veh MAPK11 (11762145_a_at) / RFU FIZ1 (11724087_x_at) / Fold change /veh FIZ1 (11724087_x_at) / RFU OASL (11726364_x_at) / Fold change /veh OASL (11726364_x_at) / RFU SOX15 (11748057_x_at) / Fold change /veh SOX15 (11748057_x_at) / RFU CD79A (11719716_a_at) / Fold change /veh CD79A (11719716_a_at) / RFU HIST1H1D (11736915_at) / Fold change /veh HIST1H1D (11736915_at) / RFU CASKIN2 (11723855_a_at) / Fold change /veh CASKIN2 (11723855_a_at) / RFU LOC730098 (11760151_x_at) / Fold change /veh LOC730098 (11760151_x_at) / RFU OR4N2 (11742367_at) / Fold change /veh OR4N2 (11742367_at) / RFU PRRT2 (11749266_a_at) / Fold change /veh PRRT2 (11749266_a_at) / RFU SNX32 (11753110_a_at) / Fold change /veh SNX32 (11753110_a_at) / RFU CDHR5 (11726645_a_at) / Fold change /veh CDHR5 (11726645_a_at) / RFU RCAN1 (11760418_a_at) / Fold change /veh RCAN1 (11760418_a_at) / RFU FAM167A (11723789_a_at) / Fold change /veh FAM167A (11723789_a_at) / RFU FAM26E (11764081_at) / Fold change /veh FAM26E (11764081_at) / RFU ISYNA1 (11749810_s_at) / Fold change /veh ISYNA1 (11749810_s_at) / RFU ACY1 (11761880_at) / Fold change /veh ACY1 (11761880_at) / RFU 11764098_at / Fold change /veh 11764098_at / RFU SAMD14 (11745864_x_at) / Fold change /veh SAMD14 (11745864_x_at) / RFU NPB (11741838_a_at) / Fold change /veh NPB (11741838_a_at) / RFU TMPRSS6 (11731388_a_at) / Fold change /veh TMPRSS6 (11731388_a_at) / RFU KRTAP10-2 (11738614_at) / Fold change /veh KRTAP10-2 (11738614_at) / RFU ARHGAP8 /// PRR5-ARHGAP8 (11727945_x_at) / Fold change /veh ARHGAP8 /// PRR5-ARHGAP8 (11727945_x_at) / RFU KRTAP5-7 /// NADSYN1 (11734609_at) / Fold change /veh KRTAP5-7 /// NADSYN1 (11734609_at) / RFU RASL12 (11751679_a_at) / Fold change /veh RASL12 (11751679_a_at) / RFU CDKN2B (11736163_a_at) / Fold change /veh CDKN2B (11736163_a_at) / RFU PRF1 (11729649_at) / Fold change /veh PRF1 (11729649_at) / RFU, ZNF638 /// ZNF638-IT1 / Fold change vs veh, ZNF638 /// ZNF638-IT1 / RFU, PANK3 / Fold change vs veh, PANK3 / RFU, SH3YL1 / Fold change vs veh, SH3YL1 / RFU, ZEB2 / Fold change vs veh, ZEB2 / RFU, NRIP1 / Fold change vs veh, NRIP1 / RFU, PTTG1IP / Fold change vs veh, PTTG1IP / RFU, CAPN2 / Fold change vs veh, CAPN2 / RFU, MED14 / Fold change vs veh, MED14 / RFU, SNORA58 / Fold change vs veh, SNORA58 / RFU, C1orf63 / Fold change vs veh, C1orf63 / RFU, LRRFIP1 / Fold change vs veh, LRRFIP1 / RFU, NDUFAF7 / Fold change vs veh, NDUFAF7 / RFU, SLC12A2 / Fold change vs veh, SLC12A2 / RFU, IBTK / Fold change vs veh, IBTK / RFU, ESF1 / Fold change vs veh, ESF1 / Fold change vs veh, TMEM50B / RFU, TAOK1 / Fold change vs veh, TAOK1 / RFU, ACBD3 / Fold change vs veh, ACBD3 / RFU, TMA16 / Fold change vs veh, TMA16 / RFU, RWDD3 / Fold change vs veh, RWDD3 / RFU, BCAT1 / Fold change vs veh, BCAT1 / RFU, EDEM3 / Fold change vs veh, EDEM3 / RFU, TMEM33 / Fold change vs veh, TMEM33 / RFU, WDR75 / Fold change vs veh, WDR75 / RFU, AHCTF1 / Fold change vs veh, AHCTF1 / RFU, TFRC / Fold change vs veh, TFRC / RFU, ZDHHC17 / Fold change vs veh, ZDHHC17 / RFU, NOM1 / Fold change vs veh, NOM1 / RFU, ARL8B / Fold change vs veh, ARL8B / RFU, ZBTB11 / Fold change vs veh, ZBTB11 / RFU, TAMM41 / Fold change vs veh, TAMM41 / RFU, KIAA1704 /// LOC100996395 / Fold change vs veh, KIAA1704 /// LOC100996395 / RFU, ING1 / Fold change vs veh, ING1 / RFU, TRMT61B / Fold change vs veh, TRMT61B / RFU, FUBP3 / Fold change vs veh, FUBP3 / RFU, TP53 / Fold change vs veh, TP53 / RFU, TNKS2 / Fold change vs veh, TNKS2 / RFU, ZFP14 / Fold change vs veh, ZFP14 / RFU, ACTR2 / Fold change vs veh, ACTR2 / RFU, PPP3R1 / Fold change vs veh, PPP3R1 / RFU, PIK3R1 / Fold change vs veh, PIK3R1 / RFU, HNRNPA1 / Fold change vs veh, HNRNPA1 / RFU, RNF170 / Fold change vs veh, RNF170 / RFU, ZNF28 / Fold change vs veh, ZNF28 / RFU, RNGTT / Fold change vs veh, RNGTT / RFU, OGT / Fold change vs veh, OGT / RFU, BRD1 / Fold change vs veh, BRD1 / RFU, MARS / Fold change vs veh, MARS / RFU, ZNF655 / Fold change vs veh, ZNF655 / RFU, FAHD1 / Fold change vs veh, FAHD1 / RFU, BDP1 / Fold change vs veh, BDP1 / RFU, LRRCC1 / Fold change vs veh, LRRCC1 / RFU, ARID1A / Fold change vs veh, ARID1A / RFU, ZNF146 / Fold change vs veh, ZNF146 / RFU, ZNF330 / Fold change vs veh, ZNF330 / RFU, GPN3 / Fold change vs veh, GPN3 / RFU, C9orf123 / Fold change vs veh, C9orf123 / RFU, N4BP2L2 / Fold change vs veh, N4BP2L2 / RFU, ARFIP1 / Fold change vs veh, ARFIP1 / RFU, FAM179B / Fold change vs veh, FAM179B / RFU, BCL10 / Fold change vs veh, BCL10 / RFU, UHRF1BP1L / Fold change vs veh, UHRF1BP1L / RFU, BET1 / Fold change vs veh, BET1 / RFU, CNOT2 / Fold change vs veh, CNOT2 / RFU, ZNF268 / Fold change vs veh, ZNF268 / Fold change vs veh, ZNF507 / RFU, DGCR2 / Fold change vs veh, DGCR2 / RFU, WDSUB1 / Fold change vs veh, WDSUB1 / Fold change vs veh, HSP90B1 /// MIR3652 / RFU, ADSS / Fold change vs veh, ADSS / RFU, GK / Fold change vs veh, GK / RFU, ZNF148 / Fold change vs veh, ZNF148 / RFU, TAF9 / Fold change vs veh, TAF9 / RFU, SLC1A5 / Fold change vs veh, SLC1A5 / RFU, SLMO2 / Fold change vs veh, SLMO2 / RFU, ABCC4 / Fold change vs veh, ABCC4 / RFU, LOC101060439 /// RAP1B / Fold change vs veh, LOC101060439 /// RAP1B / RFU, RFX7 / Fold change vs veh, RFX7 / RFU, GTPBP10 / Fold change vs veh, GTPBP10 / RFU, CNEP1R1 / Fold change vs veh, CNEP1R1 / RFU, BIVM-ERCC5 /// ERCC5 / Fold change vs veh, BIVM-ERCC5 /// ERCC5 / RFU, ILF3 / Fold change vs veh, ILF3 / RFU 11762660_at / Fold change /veh 11762660_at / RFU VCAN (11757783_s_at) / Fold change /veh VCAN (11757783_s_at) / RFU DDX43 (11728927_at) / Fold change /veh DDX43 (11728927_at) / RFU KRT8 (11758188_x_at) / Fold change /veh KRT8 (11758188_x_at) / RFU NKD1 (11759106_at) / Fold change /veh NKD1 (11759106_at) / RFU SRD5A1 (11742802_a_at) / Fold change /veh SRD5A1 (11742802_a_at) / RFU TPSAB1 /// TPSB2 (11721975_s_at) / Fold change /veh TPSAB1 /// TPSB2 (11721975_s_at) / RFU GSTM3 (11746129_a_at) / Fold change /veh GSTM3 (11746129_a_at) / RFU IL23R (11737362_x_at) / Fold change /veh IL23R (11737362_x_at) / RFU TMEM51 (11727254_a_at) / Fold change /veh TMEM51 (11727254_a_at) / RFU PIWIL2 (11732686_x_at) / Fold change /veh PIWIL2 (11732686_x_at) / RFU ORM1 (11744905_x_at) / Fold change /veh ORM1 (11744905_x_at) / RFU CCDC152 (11743942_at) / Fold change /veh CCDC152 (11743942_at) / RFU ECM1 (11717891_a_at) / Fold change /veh ECM1 (11717891_a_at) / RFU IL23R (11748794_a_at) / Fold change /veh IL23R (11748794_a_at) / RFU TNFAIP8L3 (11732012_x_at) / Fold change /veh TNFAIP8L3 (11732012_x_at) / RFU MBOAT4 (11741988_at) / Fold change /veh MBOAT4 (11741988_at) / RFU 11764193_at / Fold change /veh 11764193_at / RFU TMEM53 (11763286_at) / Fold change /veh TMEM53 (11763286_at) / RFU MAGEB2 (11727129_at) / Fold change /veh MAGEB2 (11727129_at) / RFU TMEM200A (11744735_a_at) / Fold change /veh TMEM200A (11744735_a_at) / RFU CCDC152 (11751479_a_at) / Fold change /veh CCDC152 (11751479_a_at) / RFU FAM211A (11726209_a_at) / Fold change /veh FAM211A (11726209_a_at) / RFU RGS16 (11746705_a_at) / Fold change /veh RGS16 (11746705_a_at) / RFU VCAN (11755009_s_at) / Fold change /veh VCAN (11755009_s_at) / RFU RHOB (11743442_s_at) / Fold change /veh RHOB (11743442_s_at) / RFU RGS16 (11720943_a_at) / Fold change /veh RGS16 (11720943_a_at) / RFU RGS16 (11720944_at) / Fold change /veh RGS16 (11720944_at) / RFU, VPS4B / Fold change vs veh, VPS4B / RFU, CREB1 / Fold change vs veh, CREB1 / RFU, DNAJC13 / Fold change vs veh, DNAJC13 / RFU, GNAQ / Fold change vs veh, GNAQ / RFU, CDK5R1 / Fold change vs veh, CDK5R1 / RFU, ZRANB3 / Fold change vs veh, ZRANB3 / RFU, CUL4A / Fold change vs veh, CUL4A / RFU, CCNY / Fold change vs veh, CCNY / RFU, UFL1 / Fold change vs veh, UFL1 / RFU, COG3 / Fold change vs veh, COG3 / RFU, DIAPH2 / Fold change vs veh, DIAPH2 / RFU, SKA2 / Fold change vs veh, SKA2 / RFU, AFF3 / Fold change vs veh, AFF3 / RFU, LMF1 / Fold change vs veh, LMF1 / RFU, IPO11 / Fold change vs veh, IPO11 / RFU, DFFB / Fold change vs veh, DFFB / RFU, FOXP1 / Fold change vs veh, FOXP1 / RFU, CARD8 / Fold change vs veh, CARD8 / RFU, STRN3 / Fold change vs veh, STRN3 / RFU, ADK / Fold change vs veh, ADK / RFU, RASSF2 / Fold change vs veh, RASSF2 / RFU, WIPF1 / Fold change vs veh, WIPF1 / RFU, LARP1B / Fold change vs veh, LARP1B / RFU, RASA1 / Fold change vs veh, RASA1 / RFU, RB1 / Fold change vs veh, RB1 / RFU, PPFIA1 / Fold change vs veh, PPFIA1 / RFU, MAT2A / Fold change vs veh, MAT2A / RFU, CCT5 / Fold change vs veh, CCT5 / RFU, WDR92 / Fold change vs veh, WDR92 / RFU, CUX1 / Fold change vs veh, CUX1 / RFU, TTC7A / Fold change vs veh, TTC7A / RFU, TMEM135 / Fold change vs veh, TMEM135 / RFU, DEPTOR / Fold change vs veh, DEPTOR / RFU, CPM / Fold change vs veh, CPM / RFU, DNAJB6 / Fold change vs veh, DNAJB6 / RFU, CACNA2D3 / Fold change vs veh, CACNA2D3 / RFU, DTX4 / Fold change vs veh, DTX4 / RFU, TFCP2 / Fold change vs veh, TFCP2 / RFU, GMCL1 /// GMCL1P1 / Fold change vs veh, GMCL1 /// GMCL1P1 / RFU, AEBP2 / Fold change vs veh, AEBP2 / RFU, SNHG1 /// SNORD22 /// SNORD25 /// SNORD26 /// SNORD27 /// SNORD28 /// SNORD29 /// SNORD31 / Fold change vs veh, SNHG1 /// SNORD22 /// SNORD25 /// SNORD26 /// SNORD27 /// SNORD28 /// SNORD29 /// SNORD31 / Fold change (Aza/veh), C12orf56 (ProbeSet 11735607_a_at) / Fold change (ACY-1035/veh), C12orf56 (ProbeSet 11735607_a_at) / Fold change (Aza/veh), FGFR1OP (ProbeSet 11751329_s_at) / Fold change (ACY-1035/veh), FGFR1OP (ProbeSet 11751329_s_at) / Fold change (Aza/veh), VPS36 (ProbeSet 11739960_a_at) / Fold change (ACY-1035/veh), VPS36 (ProbeSet 11739960_a_at) / RFU SYPL1 (11715823_x_at) / Fold change /veh SYPL1 (11715823_x_at) / RFU IGFBP7 (11715501_s_at) / Fold change /veh IGFBP7 (11715501_s_at) / RFU REEP3 (11722064_at) / Fold change /veh REEP3 (11722064_at) / RFU IGLL1 (11728026_x_at) / Fold change /veh IGLL1 (11728026_x_at): dose or concentration left out as unconfirmed
Settings: MV-4-11 cells, 48 hours

## Nc1ccc(-c2cccs2)cc1NC(=O)c1ccc2c(c1)cc(C1CC1)n2CCN1CCOCC1 [ACY-1035]
  Fold change /veh 11764098_at: 1.17

From paper PMC5218480 (PLoS ONE, 2017)
